Test results: patent US20260262643A1, “HERBICIDAL BENZOXAZINES” (FMC CORPORATION, priority 2022, published 2026)

Columns and labels:
barnyardgrass [1] = test: Test C preemergence; type: in vivo, Echinochloa crusgalli; conditions: 0 to 100 scale (0 no effect, 100 complete control)
Procedure, shortened: (§1)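 Soil-applied (pre) and foliar (post, 1–2 leaf, 2–10 cm) sprays; surfactant-containing non-phytotoxic solvent vehicle; loam/sand substrate. Readout: visual % control at 10 d, greenhouse, versus untreated.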

blackgrass [2] = test: Test C preemergence; type: in vivo, Alopecurus myosuroides; conditions: 0 to 100 scale (0 no effect, 100 complete control)
Procedure, shortened: as §1

corn [3] = test: Test C preemergence; type: in vivo, Zea mays; conditions: 0 to 100 scale (0 no effect, 100 complete control)
Procedure, shortened: as §1

green foxtail [4] = test: Test C preemergence; type: in vivo, Setaria viridis; conditions: 0 to 100 scale (0 no effect, 100 complete control)
Procedure, shortened: as §1

kochia [5] = test: Test C preemergence; type: in vivo, Bassia scoparia; conditions: 0 to 100 scale (0 no effect, 100 complete control)
Procedure, shortened: as §1

oat, wild [6] = test: Test C preemergence; type: in vivo, Avena fatua; conditions: 0 to 100 scale (0 no effect, 100 complete control)
Procedure, shortened: as §1

pigweed, palmer [7] = test: Test C preemergence; type: in vivo, Amaranthus palmeri; conditions: 0 to 100 scale (0 no effect, 100 complete control)
Procedure, shortened: as §1

ragweed [8] = test: Test C preemergence; type: in vivo, Ambrosia artemisiifolia; conditions: 0 to 100 scale (0 no effect, 100 complete control)
Procedure, shortened: as §1

ryegrass, Italian [9] = test: Test C preemergence; type: in vivo, Lolium multiflorum; conditions: 0 to 100 scale (0 no effect, 100 complete control)
Procedure, shortened: as §1

soybean [10] = test: Test C preemergence; type: in vivo, Glycine max; conditions: 0 to 100 scale (0 no effect, 100 complete control)
Procedure, shortened: as §1

wheat [11] = test: Test C preemergence; type: in vivo, Triticum aestivum; conditions: 0 to 100 scale (0 no effect, 100 complete control)
Procedure, shortened: as §1

barnyardgrass [12] = test: Test C postemergence; type: in vivo, Echinochloa crusgalli; conditions: 10 days
Procedure, shortened: as §1

blackgrass [13] = test: Test C postemergence; type: in vivo, Alopecurus myosuroides; conditions: 10 days
Procedure, shortened: as §1

corn [14] = test: Test C postemergence; type: in vivo, Zea mays; conditions: 10 days
Procedure, shortened: as §1

green foxtail [15] = test: Test C postemergence; type: in vivo, Setaria viridis; conditions: 10 days
Procedure, shortened: as §1

kochia [16] = test: Test C postemergence; type: in vivo, Bassia scoparia; conditions: 10 days
Procedure, shortened: as §1

oat, wild [17] = test: Test C postemergence; type: in vivo, Avena fatua; conditions: 10 days
Procedure, shortened: as §1

pigweed, palmer [18] = test: Test C postemergence; type: in vivo, Amaranthus palmeri; conditions: 10 days
Procedure, shortened: as §1

ragweed [19] = test: Test C postemergence; type: in vivo, Ambrosia artemisiifolia; conditions: 10 days
Procedure, shortened: as §1

ryegrass, Italian [20] = test: Test C postemergence; type: in vivo, Lolium multiflorum; conditions: 10 days
Procedure, shortened: as §1

soybean [21] = test: Test C postemergence; type: in vivo, Glycine max; conditions: 10 days
Procedure, shortened: as §1

wheat [22] = test: Test C postemergence; type: in vivo, Triticum aestivum; conditions: 10 days
Procedure, shortened: as §1

galium = test: Test C postemergence; type: in vivo, Galium aparine; conditions: 10 days
Procedure, shortened: as §1

horseweed = test: Test C postemergence; type: in vivo, Erigeron canadensis; conditions: 10 days
Procedure, shortened: as §1

barnyardgrass [23] = test: Test D flooded paddy test; type: in vivo, Echinochloa crus-galli; conditions: 250 g ai/ha, applied to paddy water, visual rating after 13 to 14 days, scale 0 to 100 (0 no effect, 100 complete control)
Procedure, shortened: (§2)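 2-leaf plants; flood 3 cm above soil; compound dosed into paddy water; greenhouse 13–14 d; visual rating vs controls, 0–100 (100 = complete control); dash = not tested.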

ducksalad = test: Test D flooded paddy test; type: in vivo, Heteranthera limosa; conditions: 250 g ai/ha, applied to paddy water, visual rating after 13 to 14 days, scale 0 to 100 (0 no effect, 100 complete control)
Procedure, shortened: as §2

rice = test: Test D flooded paddy test; type: in vivo, Oryza sativa; conditions: 250 g ai/ha, applied to paddy water, visual rating after 13 to 14 days, scale 0 to 100 (0 no effect, 100 complete control)
Procedure, shortened: as §2

sedge, umbrella = test: Test D flooded paddy test; type: in vivo, Cyperus difformis; conditions: 250 g ai/ha, applied to paddy water, visual rating after 13 to 14 days, scale 0 to 100 (0 no effect, 100 complete control)
Procedure, shortened: as §2

[24] = Preemergence, 500 g ai/ha, visual rating after 10 days
[25] = Test C, preemergence, 125 g ai/ha
[26] = 125 g ai/ha, postemergence, 0 to 100 scale, 0 no effect, 100 complete control
[27] = Postemergence, 500 g ai/ha, visual 0 to 100 scale (0 no effect, 100 complete control)

In the case of `C[C@H]1CN(C(=O)c2cc(-n3cnc(C4CC4)n3)cc3c2OCCO3)c2cccc(Cl)c2O1` [Compound 156], the “Barnyardgrass plant response rating” value (barnyardgrass [1]; 125 g ai/ha, preemergence) is reported as 70, the “Plant response rating, Barnyardgrass” value (barnyardgrass [1]; [24]) is reported as 90 and the “Plant response rating, Blackgrass” value (blackgrass [2]; [24]) is reported as 90. For the same molecule, the “Blackgrass plant response rating” value (blackgrass [2]; [25]) was 50, the “Plant response rating, Corn” value (corn [3]; [24]) was 10 and the “Corn plant response rating” value (corn [3]; [25]) was 0. The “Plant response rating, Foxtail, Green” value (green foxtail [4]; [24]) was 100, the “Foxtail, Green plant response rating” value (green foxtail [4]; [25]) was 100 and the “Plant response rating, Kochia” value (kochia [5]; [24]) was 100. For the same molecule, the “Kochia plant response rating” value (kochia [5]; [25]) was 80, the “Plant response rating, Oat, Wild” value (oat, wild [6]; [24]) was 40 and the “Oat, Wild plant response rating” value (oat, wild [6]; [25]) was 20. For the same molecule, the “Plant response rating, Pigweed, Palmer” value (pigweed, palmer [7]; [24]) was 100, the “Pigweed, Palmer plant response rating” value (pigweed, palmer [7]; [25]) was 100 and the “Plant response rating, Ragweed” value (ragweed [8]; [24]) was 90. The “Ragweed plant response rating” value (ragweed [8]; [25]) was 70, the “Plant response rating, Ryegrass, Italian” value (ryegrass, Italian [9]; [24]) was 90 and the “Ryegrass, Italian plant response rating” value (ryegrass, Italian [9]; [25]) was 60. The “Plant response rating, Soybean” value (soybean [10]; [24]) was 100, the “Soybean plant response rating” value (soybean [10]; [25]) was 80 and the “Plant response rating, Wheat” value (wheat [11]; [24]) was 30. The “Wheat plant response rating” value (wheat [11]; [25]) was 10, the “Plant response rating, Barnyardgrass” value (barnyardgrass [12]; [26]) was 70 and the “Plant response rating, Barnyardgrass” value (barnyardgrass [12]; [27]) was 90. The “Plant response rating, Blackgrass” value (blackgrass [13]; [26]) was 80, the “Plant response rating, Blackgrass” value (blackgrass [13]; [27]) was 90 and the “Plant response rating, Corn” value (corn [14]; [26]) was 30. The “Plant response rating, Corn” value (corn [14]; [27]) was 50, the “Plant response rating, Foxtail, Green” value (green foxtail [15]; [26]) was 90 and the “Plant response rating, Foxtail, Green” value (green foxtail [15]; [27]) was 90. For the same molecule, the “Plant response rating, Kochia” value (kochia [16]; [26]) was 80, the “Plant response rating, Kochia” value (kochia [16]; [27]) was 90 and the “Plant response rating, Oat, Wild” value (oat, wild [17]; [26]) was 20. For the same molecule, the “Plant response rating, Oat, Wild” value (oat, wild [17]; [27]) was 30, the “Plant response rating, Pigweed, Palmer” value (pigweed, palmer [18]; [26]) was 80 and the “Plant response rating, Pigweed, Palmer” value (pigweed, palmer [18]; [27]) was 100. For the same molecule, the “Plant response rating, Ragweed” value (ragweed [19]; [26]) was 80, the “Plant response rating, Ragweed” value (ragweed [19]; [27]) was 100 and the “Plant response rating, Ryegrass, Italian” value (ryegrass, Italian [20]; [26]) was 50. The “Plant response rating, Ryegrass, Italian” value (ryegrass, Italian [20]; [27]) was 90, the “Plant response rating, Soybean” value (soybean [21]; [26]) was 100 and the “Plant response rating, Soybean” value (soybean [21]; [27]) was 100. The “Plant response rating, Wheat” value (wheat [22]; [26]) was 60, the “Plant response rating, Wheat” value (wheat [22]; [27]) was 80 and the “Plant response rating, Galium” value (galium; [26]) was 100. For the same molecule, the “Plant response rating, Galium” value (galium; [27]) was 100, the “Plant response rating, Horseweed” value (horseweed; [26]) was 50 and the “Plant response rating, Horseweed” value (horseweed; [27]) was 60. For the same molecule, the “Plant response rating, Barnyardgrass (Flood)” value (barnyardgrass [23]) was 40, the “Plant response rating, Ducksalad (Flood)” value (ducksalad) was 65 and the “Plant response rating, Rice (Flood)” value (rice) was 25. For the same molecule, the “Plant response rating, Sedge, Umbrella (Flood)” value (sedge, umbrella) was 95.
